# Measured values published in US11779573B2, “Crystalline forms of compounds for preventing or treating sensory hair cell death” (University of Washington, priority 2017, dated 2023).
# Legend:
# Assay type in all cases: physicochemical
# [1] = Solubility in water of scaled-up salts of Compound B (salt screen)
# Protocol: These slurry experiments were also performed at gram scale with 25 mg/mL Compound B in 20 mL ethyl acetate with 1 equivalent acid.
# [2] = Dynamic vapor sorption (DVS), hygroscopicity and XRPD before/after; settings: for hygroscopicity / crystallinity / polymorphic form (XRPD) after DVS: mesylate; for crystallinity / polymorphic form (XRPD) after DVS: XRPD before and after DVS cycles of relative humidity
# Protocol: DVS studies were performed using a Surface Measurement Systems Ltd. DVS-1 No Video. The sample, typically 20-30 mg, was loaded into a balance pan and equilibrated at 0% relative humidity (RH). After the material was dried, the RH was increased at 10% per step for 1 hour per increment, ending at 95% RH. After completion of the sorption cycle, the sample was dried using the same method, and the cycle was repeated. The software used for data collection was DVSWin v3.01 No Video. Data analysis was performed using DVS Standard Analysis Suite v6.3.0 (Standard).
# [3] = Solubility of Compound 1 in water, shake-flask method; settings: thermodynamic from solid, visually determined at 20° C., water added stepwise to 10 mg
# Protocol: Water was added stepwise to 10 mg of Compound 1, with 15 minutes in between additions, until complete dissolution was obtained.
structure (smiles),measurement,setting,value
"CN1[C@H]2CC[C@@H]1c1c(sc(NC(=O)Nc3ccc(Cl)cc3)c1C(N)=O)C2.CS(=O)(=O)O [Compound 1, (4R,7S)-2-(3-(4-chlorophenyl)ureido)-9-methyl-5,6,7,8-tetrahydro-4H-4,7-epiminocyclohepta[b]thiophene-3-carboxamide mesylate]",solubility,[1],97 to 970 mg/mL
same,total mass uptake in the first sorption cycle,"[2]; DVS, 0% to 95% RH, first sorption cycle",1.8%
same,total mass uptake in the second cycle,"[2]; DVS, 0% to 95% RH, second cycle",1.6%
same,hygroscopicity,"[2]; DVS, listed as mesylate salt",slightly hygroscopic at high humidity levels
same,hygroscopicity,[2]; DVS,slightly hygroscopic
same,crystallinity / polymorphic form (XRPD) after DVS,[2]; listed as mesylate salt,remained unchanged
same,crystallinity / polymorphic form (XRPD) after DVS,[2],unchanged
same,solubility at 15 min,[3],> 97 mg/mL
